This experiment concerns the target mu-opioid receptor (MOR) (Homo sapiens (Human), UniProt P35372). Briefly: cell-based. To be noted: combined with a MOR antagonist; for AUC: AUC of [Ca2+]i fluorescence, CHO-K1/MOR/Gα15 cells.

Where two headings read alike, the source gives them in different places.

mu-opioid receptor (MOR), sequence (P35372 whole entry): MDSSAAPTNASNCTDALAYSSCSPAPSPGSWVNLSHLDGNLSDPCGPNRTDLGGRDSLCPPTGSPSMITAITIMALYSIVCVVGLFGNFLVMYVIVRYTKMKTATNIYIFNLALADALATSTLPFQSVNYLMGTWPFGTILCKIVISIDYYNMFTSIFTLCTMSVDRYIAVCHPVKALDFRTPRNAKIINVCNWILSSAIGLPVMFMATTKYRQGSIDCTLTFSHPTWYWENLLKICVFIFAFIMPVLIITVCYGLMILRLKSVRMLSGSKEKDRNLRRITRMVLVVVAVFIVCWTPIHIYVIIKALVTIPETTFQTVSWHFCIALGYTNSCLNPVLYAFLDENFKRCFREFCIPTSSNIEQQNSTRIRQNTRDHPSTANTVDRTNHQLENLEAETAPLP

`N#Cc1cc(F)c(N2C(=O)CSC2c2ccc(F)cc2)c(F)c1` (stereo not drawn) [Example 43]: the AUC entry is on record as “more than 5000” and the “FLIPR Ca^2+ AUC” value stood at 12926. Also, where the note is “read-out: FLIPR Ca^2+ EC50”, the EC50 was found to be 11.2 µM.

On to `Cc1c(N2C(=O)CSC2c2ccccc2)c(=O)n(-c2ccccc2)n1C` (stereo not drawn) [Example 408], for which the AUC result is given as “more than 5000” and the “FLIPR Ca^2+ AUC” value is on record as 9281. Besides, the EC50 (read-out: FLIPR Ca^2+ EC50) worked out at 12.7 µM.

As for `Cc1cc(C(=O)OCOC(=O)C(C)(C)C)ccc1N1C(=O)CSC1c1ccc(F)cc1` (stereo not drawn) [Example 273], the “FLIPR Ca^2+ AUC” value is reported as 12265. Besides, the EC50 (EC50, CHO-K1/MOR/Gα15 cells) was < 10 µM. Further, under “read-out: FLIPR Ca^2+ EC50”, the EC50 was 5.7 µM.

As for `COc1ccc(N2C(=O)CSC2c2ccc(F)cc2)c(OC)c1` (stereo not drawn) [Example 8, 3-(2,4-Dimethoxyphenyl)-2-(4-fluorophenyl)thiazolidin-4-one], the EC50 (EC50, CHO-K1/MOR/Gα15 cells) was < 10 µM.

For `CCONC(=O)c1ccc(N2C(=O)CSC2c2ccc(F)cc2)c(C)c1` (stereo not drawn) [Example 215], the “FLIPR Ca^2+ AUC” value came to 10945. The EC50 (read-out: FLIPR Ca^2+ EC50) was 4.1 µM.

`Cc1cc(C(=O)OCCc2scnc2C)ccc1N1C(=O)CSC1c1ccc(F)cc1` (stereo not drawn) [Example 266]: the “FLIPR Ca^2+ AUC” value was determined as 12653. The 50% effective concentration (EC50) (read-out: FLIPR Ca^2+ EC50) is 4.6 µM.

On to `COc1cc(C)c(N2C(=O)CSC2c2ccc(F)cc2)cc1OC` (stereo not drawn) [Example 52], for which the “FLIPR Ca^2+ AUC” value is 7780. The EC50 (read-out: FLIPR Ca^2+ EC50) is 3.6 µM.

Consider `Cc1cc(C(=O)OCCCc2ccccn2)ccc1N1C(=O)CSC1c1ccc(F)cc1` (stereo not drawn) [Example 263], for which the AUC result is given as “more than 5000” and the “FLIPR Ca^2+ AUC” value is reported as 14918. The EC50 (EC50, CHO-K1/MOR/Gα15 cells) is < 10 µM. The concentration for a half-maximal effect (EC50) (read-out: FLIPR Ca^2+ EC50) was determined as 9.2 µM.

On to `Cc1cc(C(=O)NS(=O)(=O)N(C)C)ccc1N1C(=O)CSC1c1ccc(F)cc1` (stereo not drawn) [Example 174], for which the “FLIPR Ca^2+ AUC” value turned out to be 12074. The 50% effective concentration (EC50) (read-out: FLIPR Ca^2+ EC50) was found to be 3.8 µM.

`Cc1cc(C(O)C(F)(F)F)ccc1N1C(=O)CSC1c1ccc(F)cc1` (stereo not drawn) [Example 600, 2-(4-Fluorophenyl)-3-[2-methyl-4-(2,2,2-trifluoro-1-hydroxyethyl)phenyl]-1,3-thiazolidin-4-one]: the AUC entry was “more than 5000” and the “FLIPR Ca^2+ AUC” value amounted to 13110. In addition, the EC50 (EC50, CHO-K1/MOR/Gα15 cells) was < 10 µM. Also, the EC50 (read-out: FLIPR Ca^2+ EC50) came out at 6.75 µM.

For the compound `Cc1ccc(C(F)(F)F)cc1N1C(=O)CSC1c1ccc(F)cc1` (stereo not drawn) [Example 92], for the setting “EC50, CHO-K1/MOR/Gα15 cells”, the EC50 is < 10 µM.

With `CC(=O)OCCOC(=O)c1ccc(N2C(=O)CSC2c2ccc(F)cc2)c(C)c1` (stereo not drawn) [Example 272], where the note is “EC50, CHO-K1/MOR/Gα15 cells”, the EC50 was < 10 µM.

Turning to `Cc1cc(F)ccc1N1C(=O)CSC1c1ccc(F)cc1` (stereo not drawn) [Example 110], the “FLIPR Ca^2+ AUC” value was 6308. Besides, for the setting “read-out: FLIPR Ca^2+ EC50”, the EC50 turned out to be 3.8 µM.

In the case of `Cc1cc(C2SCC(=O)N2c2ccc(C(=O)O)cc2C)ccc1F` (stereo not drawn) [Example 68], the AUC entry is recorded as “more than 5000” and the “FLIPR Ca^2+ AUC” value came to 7951. For the setting “EC50, CHO-K1/MOR/Gα15 cells”, the EC50 is < 10 µM. Also, where the note is “read-out: FLIPR Ca^2+ EC50”, the EC50 worked out at 6.4 µM.

Take `Cc1cc(C(=O)NC2CCC2)ccc1N1C(=O)CSC1c1ccc(F)cc1` (stereo not drawn) [Example 337]: the “FLIPR Ca^2+ AUC” value was 8936. Under “EC50, CHO-K1/MOR/Gα15 cells”, the EC50 was < 10 µM. In addition, the EC50 (read-out: FLIPR Ca^2+ EC50) is 0.3 µM.

As to `Cc1cc(C(=O)OCCOCCN)ccc1N1C(=O)CSC1c1ccc(F)cc1` (stereo not drawn) [Example 303], the AUC entry is “more than 5000” and the “FLIPR Ca^2+ AUC” value is recorded as 9530. Further, the EC50 (EC50, CHO-K1/MOR/Gα15 cells) was < 10 µM. For the setting “read-out: FLIPR Ca^2+ EC50”, the EC50 is 7 µM.

Take `Cc1cc(C(=O)NCc2ccccc2)ccc1N1C(=O)CSC1c1ccc(F)cc1` (stereo not drawn) [Example 374]: the AUC result is reported as “more than 5000” and the “FLIPR Ca^2+ AUC” value amounted to 6726. For the same compound, under “read-out: FLIPR Ca^2+ EC50”, the 50% effective concentration (EC50) was found to be 5.1 µM.

Take `CCONC(=O)c1ccc(N2C(=O)CSC2c2ccc(F)cc2)c(C)c1` (stereo not drawn) [Example 588, N-Ethoxy-4-[2-(4-fluorophenyl)-4-oxo-1,3-thiazolidin-3-yl]-3-methylbenzamide]: the AUC result is given as “more than 5000” and the “FLIPR Ca^2+ AUC” value was 9986. For the setting “EC50, CHO-K1/MOR/Gα15 cells”, the EC50 was < 10 µM. In addition, the EC50 (read-out: FLIPR Ca^2+ EC50) was 9.27 µM.

The values above are taken from US10544113B2 (priority 2016, dated 2020).
